In patent US4582794A, “Method of determining polyamine content of biological fluids” (The University of Arizona Foundation, priority 1982, dated 1986):

target: T1, guinea pig liver transglutaminase (UniProt P08587); test: transglutaminase-competition assay (incorporation of [3H]putrescine into dimethylated casein); format: biochemical; conditions: 0.1 μM [3H]putrescine; 30 mM tris(hydroxymethyl)aminomethane HCl pH 8.0; FIG. 2
T1 construct: guinea pig liver transglutaminase; from tissue; host or cells: guinea pig liver
T1 sequence (P08587 2-690 limits assumed): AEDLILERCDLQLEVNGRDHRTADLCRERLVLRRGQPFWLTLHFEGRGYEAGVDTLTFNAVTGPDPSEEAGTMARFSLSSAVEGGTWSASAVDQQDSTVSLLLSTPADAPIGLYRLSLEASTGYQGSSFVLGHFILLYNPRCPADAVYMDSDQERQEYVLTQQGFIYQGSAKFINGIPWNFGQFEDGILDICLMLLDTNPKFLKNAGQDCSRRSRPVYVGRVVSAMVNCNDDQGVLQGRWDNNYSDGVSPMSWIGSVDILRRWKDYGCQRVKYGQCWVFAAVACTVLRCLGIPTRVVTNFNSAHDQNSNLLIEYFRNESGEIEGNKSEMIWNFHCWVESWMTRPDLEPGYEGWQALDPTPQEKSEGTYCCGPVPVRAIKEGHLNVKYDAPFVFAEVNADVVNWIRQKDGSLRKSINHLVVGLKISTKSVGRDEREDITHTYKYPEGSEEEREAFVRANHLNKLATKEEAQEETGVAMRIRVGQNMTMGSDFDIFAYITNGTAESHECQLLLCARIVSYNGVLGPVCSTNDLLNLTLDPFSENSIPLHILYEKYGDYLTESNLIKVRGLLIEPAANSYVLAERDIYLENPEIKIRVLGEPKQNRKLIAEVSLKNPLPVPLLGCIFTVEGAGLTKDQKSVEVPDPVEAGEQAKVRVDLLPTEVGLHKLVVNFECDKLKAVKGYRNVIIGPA
Protocol: The transglutaminase competition assay was conducted in the presence of 30 mM tris(hydroxymethyl)aminomethane HCl, pH 8.3 (closed circles); 30 mM glycine, pH 9.25, (open circles); 30 mM glycine, pH 9.75 (open triangles); or 30 mM glycine, pH 10.0 (open squares). The data were obtained in the presence of increasing amounts of unlabeled putrescine.
The ability of transglutaminase to incorporate polyamines into a covalent conjugate with protein is the basis for an assay procedure based on competition between radiolabeled polyamine and unlabeled polyamine-containing standards or samples as the enzyme's substrates. However, because the affinity of transglutaminase for amine-containing substrates is relatively low the assay reaction could not be conducted under saturating substrate conditions and yield the level of sensitivity required to measure the polyamine content of biological samples. Therefore, assay conditions were developed which would make the protein acceptor substrate ratelimiting and allow the reaction to be run to completion, the radioactive and unlabeled polyamine competing for the completion, the radioactive and unlabeled polyamine competing for the limited number of conjugation sites. […] In all cases, the maximum incorporation was achieved by 30-60 minutes and was stable to another hour.
The reaction was initiated by the addition of transglutaminase solution (10 μl), incubated 60 minutes at 37° C. […] Triplicate aliquots (35 μl) of the solution were spotted on 1.5×8 cm instant thin-layer chromatography strips at a site 1.5 cm above the bottom edge which had previously received 60 μl of 20% trichloroacetic acid. Ascending chromatography was immediately carried out in 5% trichloroacetic acid containing 0.2 M KCl. After the solvent front had reached the top of the strip (ca. 10 minutes), a 2.5-cm segment from 1.5 cm above the 1 cm below the origin was cut out, dried, and the segment counted in 6 ml of scintillation liquid (toluene/Omnifluor, New England Nuclear, Boston).

| 50% displacement of [3H]putrescine incorporation | Structure (SMILES) |
| --- | --- |
| 800 pmol | NCCCCN [putrescine, Putrescine] |
| 800 pmol | NCCCCNCCCN [spermidine, Spermidine] |
| 800 pmol | NCCCNCCCCNCCCN [spermine] |
